One data set deals with P. aeruginosa biofilms. The data set is described as follows: Biofilm growth assay (spreading biofilm on semi-solid agar), P. aeruginosa. Type of data set: cell-based. The note with it: biofilm growth assay, overnight 37° C., vs negative controls, Tables 1-5; for IC85: Pseudomonas aeruginosa, read-out: P. aeruginosa: concentration that reduces the area of the spreading biofilm by greater than or equal to 85%. The essentials: (§1)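 Compound added to semi-solid agar: M8 with 0.2% glucose, 100 μM CaCl2, 1 mM MgSO4, 0.5% Casamino acids (P. aeruginosa) or LB with 0.6% agar, 0.5% glucose (E. coli). Center-inoculated with 5 μL overnight culture, incubated overnight at 37 °C; value is concentration (μg/ml) reducing spreading area ≥85% versus negative controls.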

The subject of the next data set is E. coli biofilms. Nature of the data set: Biofilm growth assay (spreading biofilm on semi-solid agar), E. coli. The class given is cell-based. The note with it: biofilm growth assay, overnight 37° C., vs negative controls, Tables 1-5; for IC85: Escherichia coli, read-out: E. coli: concentration that reduces the area of the spreading biofilm by greater than or equal to 85%. A digest of the protocol:
as §1

This note sets out measurements from patent US8324264B1, “Inhibitors of bacterial biofilms and related methods” (Sequoia Sciences, Inc., priority 2011, dated 2012).

Values after ≈ are worked out from the molar mass of the structure shown. Structures can show the parent of a compound that is named as a salt. Some results are limits rather than exact numbers.

The term melting point denotes the temperature, or range, at which the solid turns liquid. For `CC1(C)CC[C@]2(C(=O)Nc3cc(O)[nH]n3)CC[C@]3(C)C(=CCC4[C@@]5(C)Cc6c(n[nH]c6N)C(C)(C)C5CC[C@]43C)C2C1` (stereo partly drawn) (as salt: ammonium) [Compound 66, (4aS,6aS,6bR,13aR)-12-Amino-N-(5-hydroxy-1H-pyrazol-3-yl)-2,2,6a,6b,9,9,13a-heptamethyl-2,3,4,4a,5,6,6a,6b,7,8,8a,9,11,13,13a,13b,14,15b-octadecahydro-1H-chryseno[1,2-f]indazole-4-a-carboxamide], the melting point is 275 to 295 °C (dec.).

As to `CC1(C)CC[C@]2(C(=O)Nc3nnc(N)s3)CC[C@]3(C)C(=CCC4[C@@]5(C)Cc6c(n[nH]c6N)C(C)(C)C5CC[C@]43C)C2C1` (stereo partly drawn) (as salt: ammonium) [Compound 71, (4aS,6aS,6bR,13aR)-12-Amino-N-(5-amino-1,3,4-thiadiazol-2-yl)-2,2,6a,6b,9,9,13a-heptamethyl-2,3,4,4a,5,6,6a,6b,7,8,8a,9,11,13,13a,13b,14,15b-octadecahydro-1H-chryseno[1,2-f]indazole-4-a-carboxamide], the melting point was 280 to 300 °C (dec.).

As to `CC1(C)CC[C@]2(C(=O)n3ccnc3N)CC[C@]3(C)C(=CCC4[C@@]5(C)Cc6c(n[nH]c6N)C(C)(C)C5CC[C@]43C)C2C1` (stereo partly drawn) (as salt: ammonium) [Compound 73, (2-Amino-1H-imidazol-1-yl)((4aS,6aS,6bR,13aR)-12-amino-2,2,6a,6b,9,9,13a-heptamethyl-2,3,4,4a,5,6,6a,6b,7,8,8a,9,11,13,13a,13b,14,15b-octadecahydro-1H-chryseno[1,2-f]indazol-4-a-yl)methanone], the melting point is 230 to 250 °C (dec.).

The compound `CC1(C)CC[C@]2(C(=O)Nc3nnc(S)s3)CC[C@]3(C)C(=CCC4[C@@]5(C)Cc6c(n[nH]c6N)C(C)(C)C5CC[C@]43C)C2C1` (stereo partly drawn) (as salt: ammonium) [Compound 74, (4aS,6aS,6bR,13aR)-12-Amino-N-(5-mercapto-1,3,4-thiadiazol-2-yl)-2,2,6a,6b,9,9,13a-heptamethyl-2,3,4,4a,5,6,6a,6b,7,8,8a,9,11,13,13a,13b,14,15b-octadecahydro-1H-chryseno[1,2-f]indazole-4-a-carboxamide] gave a melting point of more than 300 °C.

In the case of `CC1(C)CC[C@]2(C(=O)n3cnc(S)n3)CC[C@]3(C)C(=CCC4[C@@]5(C)Cc6c(n[nH]c6N)C(C)(C)C5CC[C@]43C)C2C1` (stereo partly drawn) (as salt: ammonium) [Compound 76, ((4aS,6aS,6bR,13aR)-12-Amino-2,2,6a,6b,9,9,13a-heptamethyl-2,3,4,4a,5,6,6a,6b,7,8,8a,9,11,13,13a,13b,14,15b-octadecahydro-1H-chryseno[1,2-f]indazol-4-a-yl)(3-mercapto-1H-1,2,4-triazol-1-yl)methanone], the melting point is 260 to 280 °C (dec.).

In the case of `Cc1nnc(S)n1NC(=O)[C@]12CCC(C)(C)CC1C1=CCC3[C@@]4(C)Cc5c(n[nH]c5N)C(C)(C)C4CC[C@@]3(C)[C@]1(C)CC2` (stereo partly drawn) (as salt: ammonium) [Compound 77, (4aS,6aS,6bR,13aR)-12-Amino-N-(3-mercapto-5-methyl-4H-1,2,4-triazol-4-yl)-2,2,6a,6b,9,9,13a-heptamethyl-2,3,4,4a,5,6,6a,6b,7,8,8a,9,11,13,13a,13b,14,15b-octadecahydro-1H-chryseno[1,2-f]indazole-4-a-carboxamide], the melting point is 250 to 270 °C (dec.).

`CC1(C)CC[C@]2(c3n[nH]c(O)c3CCN)CC[C@]3(C)C(=CCC4[C@@]5(C)Cc6c(n[nH]c6N)C(C)(C)[C@@H]5CC[C@]43C)[C@@H]2C1` (stereo partly drawn) (as salt: ammonium) [Compound 84, 3-((4aS,6aS,6bR,13aR)-12-Amino-2,2,6a,6b,9,9,13a-heptamethyl-2,3,4,4a,5,6,6a,6b,7,8,8a,9,11,13,13a,13b,14,15b-octadecahydro-1H-chryseno[1,2-f]indazol-4-a-yl)-4-(2-aminoethyl)-1H-pyrazol-5-ol]: the melting point was 250 to 260 °C (dec.).

In turn, `CC1(C)CC[C@]2(c3n[nH]c(O)c3N3CCOCC3)CC[C@]3(C)C(=CCC4[C@@]5(C)Cc6c(n[nH]c6N)C(C)(C)[C@@H]5CC[C@]43C)[C@@H]2C1` (stereo partly drawn) (as salt: ammonium) [Compound 88, 3-((4aS,6aS,6bR,13aR)-12-Amino-2,2,6a,6b,9,9,13a-heptamethyl-2,3,4,4a,5,6,6a,6b,7,8,8a,9,11,13,13a,13b,14,15b-octadecahydro-1H-chryseno[1,2-f]indazol-4-a-yl)-4-morpholino-1H-pyrazol-5-ol] came in with a melting point of more than 300 °C.

The compound `C[C@H]1[C@H](C)CC[C@]2(C(=O)O)CC[C@]3(C)C(=CCC4[C@@]5(C)Cc6c(n[nH]c6N)C(C)(C)[C@@H]5CC[C@]43C)[C@H]12` (stereo partly drawn) (as salt: ammonium) [Example 2, (4aS,6aS,6bR,13aR)-12-Amino-2,2,6a,6b,9,9,13a-heptamethyl-2,3,4,4a,5,6,6a,6b,7,8,8a,9,11,13,13a,13b,14,15b-octadecahydro-1H-chryseno[1,2-f]indazole-4-a-carboxylic acid] displayed a melting point of 258 to 278 °C.

`C[C@@H]1c2n[nH]c(N)c2C[C@]2(C)C3CC=C4[C@@H]5CC(C)(C)CC[C@]5(C(=O)O)CC[C@@]4(C)[C@]3(C)CC[C@@H]12` (stereo partly drawn) (as salt: ammonium) [Example 3, (4aS,6aS,6bR,8aS,9S,13aS,15bS)-12-Amino-2,2,6a,6b,9,13a-hexamethyl-2,3,4,4a,5,6,6a,6b,7,8,8a,9,11,13,13a,13b,14,15b-octadecahydro-1H-chryseno[1,2-f]indazole-4-a-carboxylic acid] registered a melting point of more than 300 °C.

Consider `CC1=C2[C@@H]3CC(C)(C)CC[C@]3(C(=O)O)CC[C@@]2(C)[C@]2(C)CC[C@H]3C(C)(C)c4n[nH]c(N)c4C[C@]3(C)C2C1` (stereo partly drawn) (as salt: ammonium) [Example 4, (4aS,6aS,6bR,8aR,13aR,15bS)-12-Amino-2,2,6a,6b,9,9,13a,15-octamethyl-2,3,4,4a,5,6,6a,6b,7,8,8a,9,11,13,13a,13b,14,15b-octadecahydro-1H-chryseno[1,2-f]indazole-4-a-carboxylic acid], for which the melting point is more than 300 °C.

With `CC1(C)CC[C@]2(C(=O)O)CC[C@]3(C)C(=C(c4ccco4)CC4[C@@]5(C)Cc6c(n[nH]c6N)C(C)(C)[C@@H]5CC[C@]43C)[C@@H]2C1` (stereo partly drawn) (as salt: ammonium) [Example 7, (4aS,6aS,6bR,13aR)-12-Amino-15-(furan-2-yl)-2,2,6a,6b,9,9,13a-heptamethyl-2,3,4,4a,5,6,6a,6b,7,8,8a,9,11,13,13a,13b,14,15b-octadecahydro-1H-chryseno[1,2-f]indazole-4-a-carboxylic acid], the melting point was 250 to 270 °C (dec.).

`CN(C)c1ccc(C2=C3[C@@H]4CC(C)(C)CC[C@]4(C(=O)O)CC[C@@]3(C)[C@]3(C)CC[C@H]4C(C)(C)c5n[nH]c(N)c5C[C@]4(C)C3C2)cc1` (stereo partly drawn) (as salt: ammonium) [Example 10, (4aS,6aS,6bR,13aR)-12-Amino-15-(4-(dimethylamino)phenyl)-2,2,6a,6b,9,9,13a-heptamethyl-2,3,4,4a,5,6,6a,6b,7,8,8a,9,11,13,13a,13b,14,15b-octadecahydro-1H-chryseno[1,2-f]indazole-4-a-carboxylic acid] had a melting point of more than 300 °C.

For the compound `CC1(C)CC[C@]2(C(=O)O)CC[C@]3(C)C(=C(c4ccc5c(c4)CCN5)CC4[C@@]5(C)Cc6c(n[nH]c6N)C(C)(C)[C@@H]5CC[C@]43C)[C@@H]2C1` (stereo partly drawn) (as salt: ammonium) [Example 11, (4aS,6aS,6bR,13aR)-12-Amino-15-(indolin-5-yl)-2,2,6a,6b,9,9,13a-heptamethyl-2,3,4,4a,5,6,6a,6b,7,8,8a,9,11,13,13a,13b,14,15b-octadecahydro-1H-chryseno[1,2-f]indazole-4-a-carboxylic acid], the melting point is 170 to 190 °C (dec.).

On to `CCC1=C2[C@@H]3CC(C)(C)CC[C@]3(C(=O)O)CC[C@@]2(C)[C@]2(C)CC[C@H]3C(C)(C)c4n[nH]c(N)c4C[C@]3(C)C2C1` (stereo partly drawn) (as salt: ammonium) [Example 14, (4aS,6aS,6bR,8aR,13aR,15bS)-12-Amino-15-ethyl-2,2,6a,6b,9,9,13a-heptamethyl-2,3,4,4a,5,6,6a,6b,7,8,8a,9,11,13,13a,13b,14,15b-octadecahydro-1H-chryseno[1,2-f]indazole-4-a-carboxylic acid], for which the melting point is more than 300 °C.

In the case of `CC1(C)CC[C@]2(C(=O)O)CC[C@]3(C)C(C(=O)C=C4[C@@]5(C)Cc6c(n[nH]c6N)C(C)(C)[C@@H]5CC[C@]43C)[C@@H]2C1` (stereo partly shown) [M], the IC85 in the data set on P. aeruginosa biofilms and in the data set on E. coli biofilms was 8 µg/mL (≈ 15.8 µM) throughout.

Turning to `CC1(C)CC[C@]2(C(=O)O)CC[C@]3(C)C(=C(CO)CC4[C@@]5(C)Cc6c(n[nH]c6N)C(C)(C)[C@@H]5CC[C@]43C)[C@@H]2C1` (stereo partly shown) [N], the IC85 in the data set on P. aeruginosa biofilms and with E. coli biofilms was 8 µg/mL (≈ 15.3 µM) each time.

For the compound `C[C@H]1[C@H](C)CC[C@]2(C(=O)O)CC[C@]3(C)C(=CC[C@@H]4[C@@]5(C)CC[C@H](O)C(C)(C)[C@@H]5CC[C@]43C)[C@H]12` [Ursolic acid, ursolic acid, reference compound], the IC85 with P. aeruginosa biofilms and in the data set with E. coli biofilms was 8 µg/mL (≈ 17.5 µM) throughout.

On to `C[C@H]1[C@H](C)CC[C@]2(CO)CC[C@]3(C)C(=CC[C@@H]4[C@@]5(C)CC[C@H](O)C(C)(C)[C@@H]5CC[C@]43C)[C@H]12` [Uvaol, reference compound], for which the IC85 with P. aeruginosa biofilms was more than 128 µg/mL; in the data set with E. coli biofilms it was more than 8 µg/mL.

On to Lupeol [reference compound], for which the “P. aeruginosa: concentration that reduces the area of the spreading biofilm by greater than or equal to 85%” value in the data set with P. aeruginosa biofilms was more than 16 µg/mL. Moreover, the “E. coli: concentration that reduces the area of the spreading biofilm by greater than or equal to 85%” value in the data set with E. coli biofilms was more than 8 µg/mL.
